Test results taken from article PMC9019904, “AD Informer Set: Chemical tools to facilitate Alzheimer's disease drug discovery” (Alzheimer's & Dementia : Translational Research & Clinical …, 2022).
Values after ≈ are worked out from the molar mass of the structure shown.

Key:
[1] = test system: HMC3 (human microglia) cell line; test: pHrodo-myelin phagocytosis/cell viability high content imaging assay: phagocytosis signal; type: cell-based
Outline: (§1)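 Mouse BV2 and human HMC3 microglia given pHrodo-myelin; phagocytosis and cell viability imaged together by high content imaging about 22 hours after myelin addition. Three measurements extracted, including intensity increase and decrease marking early and later apoptosis.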

[2] = test system: cellular system; details: published cellular activity at 10 μM; cited from earlier work
[3] = test system: BV2 (mouse microglia) cell line; test: pHrodo-myelin phagocytosis/cell viability high content imaging assay: phagocytosis signal; type: cell-based
Outline: as §1

[4] = test system: BV2 (mouse microglia) cell line; test: pHrodo-myelin phagocytosis/cell viability high content imaging assay: viability (cell count, nuclear area, nuclear intensity)
Outline: (§2)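 10 μM single dose, 48 h total; pHrodo-myelin present final 20 h. Read-out: automated imaging, total cell count/well, mean nuclear intensity/cell. n=2, normalized to untreated wells, % control.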

[5] = test system: HMC3 (human microglia) cell line; test: as above
Outline: as §2

[6] = Kinetic solubility in aqueous buffer pH 7.4 by total chemiluminescent nitrogen determination (Analiza); details: aqueous buffer, pH 7.4, aqueous buffer, kinetic from dmso stock

Row | SMILES | Inhibition of human microglial phagocytosis at 10 μM (<70% control) ([1]; HMC3 cells, 10 μM) | Reported as cell active (<10 μM) [2] | other results
1 | CC(=O)O[C@@H]1[C@@H](OC(C)=O)[C@@H](O)[C@H](Oc2c(-c3ccc(O)cc3)oc3cc(O)cc(O)c3c2=O)O[C@H]1C [SL0101] | Y (The compound was found to inhibit phagocytosis (response threshold: <70% control) when human immortalized microglial cells were dosed at 10 μM (Y: yes)) | Y (Published data supports that the compound is active in a cellular system when dosed at 10 μM (Y/N)) | 
2 | CCCCCCCCCCCCCCCCOCC(COCC(F)(F)F)OP(=O)([O-])OC.[Li+] (stereo not shown) [MJ-33 (lithium salt)] | Y (The compound was found to inhibit phagocytosis (response threshold: <70% control) when human immortalized microglial cells were dosed at 10 μM (Y: yes)) | Y (Published data supports that the compound is active in a cellular system when dosed at 10 μM (Y/N)) | 
3 | C[C@H](CCCC(C)(C)O)[C@H]1CC[C@H]2[C@@H]3CC=C4C[C@@H](O)CC[C@]4(C)[C@H]3CC[C@]12C [25-Hydroxycholesterol] | Y (The compound was found to inhibit phagocytosis (response threshold: <70% control) when human immortalized microglial cells were dosed at 10 μM (Y: yes)) | Y (Published data supports that the compound is active in a cellular system when dosed at 10 μM (Y/N)) | Inhibition of mouse microglial phagocytosis at 10 μM (<70% control) ([3]; BV2 cells, 10 μM): Y (The compound was found to inhibit phagocytosis (response threshold: <70% control) when murine immortalized microglial cells were dosed at 10 μM (Y: yes))
4 | Cc1cc2c(cc1-c1cc(/C=C\C(=O)O)ccc1O)C(C)(C)CCC2(C)C [CD3254] |  | Y (Published data supports that the compound is active in a cellular system when dosed at 10 μM (Y/N)) | 
5 | C=C(c1ccc(C(=O)O)cc1)c1cc2c(cc1C)C(C)(C)CCC2(C)C [Bexarotene] |  | Y (Published data supports that the compound is active in a cellular system when dosed at 10 μM (Y/N)) | 
6 | CC(C)(C(=O)O)c1ccc(C(O)CCCN2CCC(C(O)(c3ccccc3)c3ccccc3)CC2)cc1 (stereo not shown) [Fexofenadine] |  | Y (Published data supports that the compound is active in a cellular system when dosed at 10 μM (Y/N)) | 
7 | C[C@@H]1O[C@@H](O[C@H]2[C@H](Oc3cc(O)c4c(c3)O[C@H](c3ccc(O)cc3)CC4=O)O[C@H](CO)[C@@H](O)[C@@H]2O)[C@H](O)[C@H](O)[C@H]1O [Naringin] | Y (The compound was found to inhibit phagocytosis (response threshold: <70% control) when human immortalized microglial cells were dosed at 10 μM (Y: yes)) | Y (Published data supports that the compound is active in a cellular system when dosed at 10 μM (Y/N)) | Stimulation of mouse microglial phagocytosis at 10 μM (>150% control) ([3]; BV2 cells, 10 μM): Y (The compound was found to stimulate phagocytosis (response threshold: >150% control) when murine immortalized microglial cells were dosed at 10 μM (Y: yes))
8 | CCCCCOc1cc2c(cc1-c1cc(/C=C/C(=O)O)ccc1O)C(C)(C)CCC2(C)C [UVI 3003] |  | Y (Published data supports that the compound is active in a cellular system when dosed at 10 μM (Y/N)) | 
9 | Cc1cc2c(cc1C(=O)c1ccc(C(=O)O)cc1)C(C)(C)CCC2(C)C [LG-100064] |  | Y (Published data supports that the compound is active in a cellular system when dosed at 10 μM (Y/N)) | 
10 | CNC(=O)c1cccc(-c2ccc3c(N4CCOC[C@@H]4C)nc(N4CCOC[C@@H]4C)nc3n2)c1 [Vistusertib] |  | Y (Published data supports that the compound is active in a cellular system when dosed at 10 μM (Y/N)) | Mouse microglial cytotoxicity at 10 μM (<70% control) ([4]; BV2 cells, 10 μM, cell count <70% control): Y (The compound was found to be cytotoxic (cell count threshold: <70% control) when murine immortalized microglial cells were dosed at 10 μM (Y: yes)); Stimulation of mouse microglial phagocytosis at 10 μM (>150% control) ([3]; BV2 cells, 10 μM): Y (The compound was found to stimulate phagocytosis (response threshold: >150% control) when murine immortalized microglial cells were dosed at 10 μM (Y: yes))
11 | Cl.N=C(CCl)NCCC[C@H](NC(=O)c1ccccc1)C(N)=O [Cl-amidine] | Y (The compound was found to inhibit phagocytosis (response threshold: <70% control) when human immortalized microglial cells were dosed at 10 μM (Y: yes)) | Y (Published data supports that the compound is active in a cellular system when dosed at 10 μM (Y/N)) | 
12 | c1ccc(CNc2nc(NCc3ccccc3)c3ccccc3n2)cc1 [DBeQ] |  |  | Mouse microglial cytotoxicity at 10 μM (<70% control) ([4]; BV2, 10 μM, cell count <70% control): Y (The compound was found to be cytotoxic (cell count threshold: <70% control) when murine immortalized microglial cells were dosed at 10 μM (Y: yes)); Human microglial cytotoxicity at 10 μM (<70% control) ([5]; HMC3, 10 μM, cell count <70% control): Y (The compound was found to be cytotoxic (cell count threshold: <70% control) when human immortalized microglial cells were dosed at 10 μM (Y: yes)); Inhibition of mouse microglial phagocytosis at 10 μM (<70% control) ([3]; BV2, 10 μM): Y (The compound was found to inhibit phagocytosis (response threshold: <70% control) when murine immortalized microglial cells were dosed at 10 μM (Y: yes)); Inhibition of human microglial phagocytosis at 10 μM (<70% control) ([1]; HMC3, 10 μM): Y (The compound was found to inhibit phagocytosis (response threshold: <70% control) when human immortalized microglial cells were dosed at 10 μM (Y: yes)); solubility kinetic [6]: 1.9 µM (≈ 0.647 µg/mL)
13 | O=S(=O)(NC1CCNCC1)c1cc(S(=O)(=O)c2ccccc2)ccc1C(F)(F)F [WAY-316606] |  | Y (Published data supports that the compound is active in a cellular system when dosed at 10 μM (Y/N)) | Stimulation of mouse microglial phagocytosis at 10 μM (>150% control) ([3]; BV2 cells, 10 μM): Y (The compound was found to stimulate phagocytosis (response threshold: >150% control) when murine immortalized microglial cells were dosed at 10 μM (Y: yes))
14 | Cn1nccc1Nc1nccc(-c2ccn([C@H](CO)c3ccc(Cl)c(F)c3)c(=O)c2)n1 [Ravoxertinib (GDC0994)] |  |  | Mouse microglial cytotoxicity at 10 μM (<70% control) ([4]; 10 μM, BV2): Y (The compound was found to be cytotoxic (cell count threshold: <70% control) when murine immortalized microglial cells were dosed at 10 μM (Y: yes)); Human microglial cytotoxicity at 10 μM (<70% control) ([5]; 10 μM, HMC3): Y (The compound was found to be cytotoxic (cell count threshold: <70% control) when human immortalized microglial cells were dosed at 10 μM (Y: yes)); Inhibition of mouse microglial phagocytosis at 10 μM (<70% control) ([3]; 10 μM, BV2): Y (The compound was found to inhibit phagocytosis (response threshold: <70% control) when murine immortalized microglial cells were dosed at 10 μM (Y: yes)); Inhibition of human microglial phagocytosis at 10 μM (<70% control) ([1]; 10 μM, HMC3): Y (The compound was found to inhibit phagocytosis (response threshold: <70% control) when human immortalized microglial cells were dosed at 10 μM (Y: yes)); solubility kinetic [6]: 3.8 µM (≈ 1.68 µg/mL)
15 | C=CC[N+]1([C@H]2C[C@H]3[C@@H]4CC[C@H]5C[C@H](O)[C@@H](N6CCOCC6)C[C@]5(C)[C@H]4CC[C@]3(C)[C@H]2OC(C)=O)CCCC1 [Rocuronium Bromide] | Y (The compound was found to inhibit phagocytosis (response threshold: <70% control) when human immortalized microglial cells were dosed at 10 μM (Y: yes)) | Y (Published data supports that the compound is active in a cellular system when dosed at 10 μM (Y/N)) | 
